In general, melting point refers to the temperature, or range, at which the solid turns liquid.

Some results are limits rather than exact numbers.

Compound `Nc1ccc2cnn(-c3ccnc(N[C@H]4CC[C@H](O)CC4)n3)c2c1` returned a melting point of 236 to 238 °C.

`CC(C)=C1OC(=O)N(c2ccc(Cl)cc2)C1=O` showed a melting point of 135 to 136 °C.

Consider `O=[N+]([O-])c1cccc2nn(-c3ccccc3)nc12`, for which the melting point is 155 to 156 °C.

The compound `COc1ccc(C(=O)Nc2ccccc2)cc1NC(=S)Nc1cccnc1` had a melting point of 178 to 179 °C.

`COc1ccc(N2CCN(Cc3ccc(Nc4ccnc5cc(C(F)(F)F)ccc45)cc3)CC2)cc1`: the melting point was in the range of 235 to 237 °C.

Compound `CCC(CC)(CC)NC(=S)Nc1cc(Cl)cc(Cl)c1` returned a melting point of 152 to 154 °C.

The compound `O=C1CCC(c2ccccc2)(c2ccccc2)C2CN(C(Cc3ccccc3)=NCCc3ccccc3)CC12` (stereo not drawn) yielded a melting point of 188 °C.

Consider `Nc1ncc2c(n1)-c1ccc(Cl)cc1C(c1ccccc1)=NC2`, for which the melting point is 209 to 210 °C.

As to `COc1ccc(Cl)cc1C1(F)C(=O)Nc2ccc(F)cc21` (stereo not drawn), the melting point fell in the range of 205 to 207 °C.

In the case of `Cc1cc(O)n2nc(S(=O)(=O)Nc3ccccc3C(F)(F)F)nc2n1`, the melting point fell in the range of 245 to 247 °C.

`CCOC(=O)c1[nH]c(-n2ccc(OCc3ccccc3)cc2=O)nc1C` yielded a melting point of 135 to 136 °C.

Turning to `COc1cc2c(cc1OC)C(C(S)(C#N)CC(=O)O)=NCC2` (stereo not drawn), the melting point fell in the range of 173 to 175 °C.

`Cn1cc(-c2ccccc2)c(=O)c(-c2ccccc2Cl)c1` displayed a melting point of 145 °C.

For `Nc1nc2c(s1)CCN(CCC=Cc1ccccc1)CC2`, the melting point fell in the range of 157 to 158 °C.

In turn, `CC(=O)N1CCN(c2c(C)c(C)c3c(c2C)C(c2ccc(C)cc2)C(C)(C)O3)CC1` (stereo not drawn) showed a melting point of 272 to 274 °C.

The compound `Oc1ccc(C2(c3ccc(O)cc3)c3ccccc3-c3ccccc32)cc1` returned a melting point of 215 °C.

As to `Cc1ccc(NP(N)(N)=O)c([N+](=O)[O-])c1`, the melting point was > 180 °C.

For `CCCCC(=O)OCC(=O)C12OCOC1CC1C3CCC4=CC(=O)C=CC4(C)C3C(O)CC12C` (stereo not drawn), the melting point was 121 to 122 °C.

Consider `CNc1nc(Nc2ccc(Cl)c(Cl)c2)ncc1NC(=O)C(C)C`, for which the melting point lay within 284 to 286 °C.

`O=Cc1ccc2sc(=O)[nH]c2c1`: the melting point lay in the range of 140 to 142 °C.

On to `CCc1cc2cc(O)ccc2c(Oc2ccc(/C=C/C(=O)N3CCN(C)CC3)cc2)c1-c1ccccc1`, for which the melting point fell in the range of 195 to 196 °C.

As for `Cc1c(Cc2ccccc2)c(=O)n2c(CN(C)Cc3ccccc3)c(-c3ccc(NC(=O)OC(C)(C)C)cc3)nc2n1Cc1c(F)cccc1F`, the melting point fell in the range of 179 to 184 °C.

For `Cc1ccc(-c2csc(/C=C/C(=O)O)c2)cc1`, the melting point lay in the range of 206 to 207 °C.

Turning to `CNc1cc(C(=O)O)ccc1C`, the melting point lay in the range of 167 to 169 °C.

`COc1cc(-c2nc3cc(OC)cc(OC)c3c(=O)[nH]2)cc(N2CCN(C(C)C)CC2)c1` returned a melting point of 212 to 213 °C.

Compound `N#CC1=CC(CF)(CF)Oc2ccc(Br)cc21` had a melting point of 105 to 107 °C.

In the case of `CCCc1cc(F)c(C(=O)O)cc1O`, the melting point was 134 to 136 °C.

`CCOC(=O)c1cnc(-c2cc3cccc([N+](=O)[O-])c3n2COC)s1` displayed a melting point of 92 to 93 °C.

Compound `CN(C)c1ccc(Nc2ncc(C(=O)O)c(=O)[nH]2)cc1` registered a melting point of 261 to 263 °C.

`COc1cc(C)nc(NCSc2ccc(Cl)cc2)n1` gave a melting point of 78 to 82 °C.

On to `CCOC(=O)C(=CNc1ccnn1CC)C(=O)OCC`, for which the melting point was in the range of 50 to 53 °C.

`COc1ncccc1-c1[nH]c2ccccc2c1C1CCNCC1` yielded a melting point of 110 to 115 °C.

`Fc1ccccc1NC(=S)c1ccccn1` returned a melting point of 94 to 97 °C.

The compound `CNC(=O)C(=O)CCCCCCSc1ccc(-c2ccccc2)cc1` yielded a melting point of 131 to 132 °C.

The compound `CC(C)(C)OC(=O)Nc1ccc(C(=O)O)cc1C(F)(F)F` returned a melting point of 197 to 198 °C.

Turning to `Cn1nnc(-c2ccc3c(c2)S(=O)(=O)c2ccccc2C3=O)n1`, the melting point was 204 to 205 °C.

In the case of `CCC(C(C)C)C(CN)CC(=O)O` (stereo not drawn), the melting point was 170 to 180 °C.

As to `COC(=O)c1nc(Cl)c(F)c(N)c1/C=C/[Si](C)(C)C`, the melting point lay in the range of 103 to 105 °C.

Compound `CC1c2cc(C(C)(C)C)cc(C(C)(C)C)c2OP(OCCNC(C)(C)C)Oc2c1cc(C(C)(C)C)cc2C(C)(C)C` (stereo not drawn) returned a melting point of 174 to 175 °C.

As for `CCOC(=O)[C@@H]1CCC(=O)N1C(=O)OC(C)(C)C`, the melting point was in the range of 48 to 49 °C.

Regarding `O=C(O)CSc1nc(=O)[nH]cc1F`, the melting point was determined as 255 °C.

For the compound `Cc1c(C(=O)O)sc2ccc(Br)cc12`, the melting point was > 300 °C.

In the case of `CC(C)c1cc(S(=O)(=O)c2c(Br)cc(CCC(=O)O)cc2Br)ccc1O`, the melting point fell in the range of 186 to 188 °C.

`COc1cc2c(cc1OCc1ccccc1)C(Sc1ccc(Cl)cc1)(C(N)=CC(=O)OC(C)(C)C)C2` (stereo not drawn) came in with a melting point of 112 to 115 °C.

In the case of `COc1cccc(NC(=O)O[C@@H]2CN=C(c3ccccc3)O[C@H]2c2ccccc2)c1` (racemic), the melting point is 110 °C.

`CCc1nc2nccc(-c3cccnc3)n2n1`: the melting point is 147 to 149 °C.

`Cc1oc(-c2ccccc2)nc1COc1cccc(COc2nn(Cc3ccccc3)cc2C=O)c1` returned a melting point of 131 to 132 °C.

`CCn1c(=O)c2c(nc(/C=C/c3ccc(OC)c(OC(C)=O)c3)n2C)n(CC)c1=O` returned a melting point of 241 to 242 °C.

On to `COc1cc(Br)c(O)c(C=O)c1`, for which the melting point lay within 107 to 110 °C.

In turn, `COC(=O)c1cc(-c2ccc(=O)n(C(C)C)n2)c(-c2ccccc2)nc1OCC(N)=O` gave a melting point of 183 to 184 °C.

Compound `Cn1c(=O)n(-c2cc(N)c(Cl)cc2F)c(=S)n1C` returned a melting point of 208 °C.

In turn, `Cc1ccc(C)c(C(CCC(=O)O)Oc2cc(OCc3ccsc3)ccc2C#N)c1` (racemic) displayed a melting point of 135 to 136 °C.

`O=C(CCCCl)Nc1cccc(-c2ccnc3c(C(=O)c4cccs4)cnn23)c1` returned a melting point of 97 to 100 °C.

`Cc1ccc2c(c1)CC(n1ccnc1C(N)=O)C2=O` (stereo not drawn) yielded a melting point of 196 °C.

Take `CCc1cc(OC)c(O)c([N+](=O)[O-])c1`: the melting point lay within 59 to 61 °C.

Compound `Cc1cc(NC(=O)NNc2cccc(C#N)c2)ccc1N1CCCCC1=O` displayed a melting point of 206 to 207 °C.

Turning to `NC(=O)N(O)C1C=C(c2cccc(Oc3ccccc3)c2)CC1` (single isomer, unassigned; (+)), the melting point lay within 139 to 141 °C.

Regarding `CCOC(=O)c1ccc(NC(=O)CCc2ccc(OC)cc2)cc1`, the melting point lay in the range of 134 to 136 °C.

As to `CCCOC(C)c1ccc(-c2ccc(OCc3ccccc3)cc2)cc1` (single isomer, unassigned; (+)), the melting point fell in the range of 106 to 108 °C.

`O=C(O)c1ccc(S(=O)(=O)Oc2ccc(-c3ccc(-c4c(Cc5ccccc5)oc5ccccc45)cc3)cc2)cc1` showed a melting point of 186 to 188 °C.

In turn, `COc1cc2cc(-c3ccccc3Cl)sc2c(Cl)c1Cl` displayed a melting point of 170 to 171 °C.

Compound `O=C(c1cc(C(F)(F)F)cc(C(F)(F)F)c1)N1CCC(N2CCN(Cc3ccccc3)CC2)CC1Cc1ccccc1` (stereo not drawn) showed a melting point of 144 °C.

Turning to `O=C(O)COc1ccc2c(c1)-c1nc(S(=O)(=O)CC(c3ccccc3)c3ccccc3)sc1CC2`, the melting point was in the range of 183 to 185 °C.
